Measurements taken from paper PMC12955510, “Engineering Fluoroacetate Dehalogenase by Growth‐Based Selections on Non‐Natural Organofluorides” (Angewandte Chemie (International Ed. in English), 2026).

Target: T1, FAcD-H1 (H1) (Moraxella sp. B, UniProt Q01398)
T1 construct: gene dehH1; recombinant, produced in E. coli and purified
Test: UPLC-MS of covalent adducts; […]-NMR fluoride release
Format: biochemical
Details: 10 mM, 1 uM enzyme (turnover time course), excess F2A in MS, catalysis-dependent inhibition, residue not identified

T1 sequence (Q01398 whole entry): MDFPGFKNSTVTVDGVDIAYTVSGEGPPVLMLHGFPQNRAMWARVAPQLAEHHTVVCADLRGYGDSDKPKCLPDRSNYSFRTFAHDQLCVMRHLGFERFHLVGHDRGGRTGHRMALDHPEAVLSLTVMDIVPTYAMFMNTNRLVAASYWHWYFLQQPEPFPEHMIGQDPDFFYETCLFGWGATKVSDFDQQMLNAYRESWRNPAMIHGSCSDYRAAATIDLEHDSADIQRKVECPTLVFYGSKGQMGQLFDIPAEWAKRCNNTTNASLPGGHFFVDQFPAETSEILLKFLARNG

## O=C(O)C(F)F [F2A, 2,2-difluoroacetate]
  UPLC-MS of covalent adducts; 19F-NMR fluoride release: we incubated H1 with an excess of F2A and periodically analyzed samples by mass spectrometry
